According to article PMC9965125, “New NSAID Conjugates as Potent and Selective COX-2 Inhibitors: Synthesis, Molecular Modeling and Biological Investigation” (Molecules, 2023):
Several values for one entry are separate records, joined by “and”; a condition that tells them apart may be missing. Equal values may be shown once.

How the values were obtained:
[1] = tested on: carrageenan induced paw edema; assay: carrageenan-induced rat paw edema; type: in vivo; details: 10 mg/kg indomethacin mol equivalent i.p.; for Mean Edema Thickness: ± standard error
Experimental: Anti-inflammatory activity screening
The anti-inflammatory activity of the tested compounds was determined in-vivo by the acute carrageenan induced paw edema standard method in rats. Adult Wister rats of either sex (pregnant female animals were excluded) weighing 120–150 g were divided into 19 groups of 6 animals each. The tested compounds dissolved in DMSO, at a dose of 10 mg kg-1 (rat body […]
inflammation. The control group was given DMSO only. Paw edema was induced by subcutaneous injection of freshly prepared 1% solution of carrageenan in saline (0.9%, 0.1 ml per rat) into subplantar tissue of the right hind paw of rats. The thickness of the paw was measured (in mm) after successive time intervals (1, 2, 3, 4 and 24 h) and compared with the initial hind paw thickness of each rat for determining the edema thickness. Data were collected, checked, revised and analyzed (SPSS 16). Quantitative variables from normal distribution were expressed as means ± SE “standard error”. The anti-inflammatory activity was expressed as percentage inhibition of edema thickness in treated animals in comparison with the control group according to eqn. (1) […]
% Inhibition of edema= Vc-Vt x 100 … .. (1)
Where, Vc and Vt are the means of edema paw thickness for the control and tested compound treated animal groups, respectively.
The potency of the tested compounds was expressed as % inhibition of edema thickness […]
% Potency = % inhibition of edema for the tested compound treated group x 100 … . (2)

[2] = tested on: acetic acid-induced abdominal writhing; assay: acetic acid-induced abdominal writhing assay (peripheral analgesic); type: in vivo, mice; details: 10 mg/kg indomethacin mol equivalent i.p.
Experimental: Peripheral analgesic testing
Peripheral analgesic activity was measured by the standard acetic acid-induced writhing […]
One hour after intraperitoneally (i,p.) administration of 10 mg kg−1 (mice body weight) […]
distilled/sterile water by the aid of two drops of Tween 80, each mouse was injected with 0.1 ml of 1% acetic acid solution i.p. The control group animals were given sterile/distilled water only with few drops of Tween 80. Starting 5 min after the acetic acid injection, the number of muscular contractions in each mouse was counted for 30 min. A significant reduction in the number of writhing by any test compound as compared to control animals was considered as a positive analgesic response. Percentage protection was calculated according to equ. (3), where n stands for the average number of writhing in the control group and n' is the average number of writhing in the treated group. The % potency was calculated by equ. (4) (Table 2).
% Inhibition/protection = n−n′ x100 … . (3)

[3] = tested on: hot plate latency; assay: hot plate assay (central analgesic); type: in vivo, mice; details: 10 mg/kg indomethacin mol equivalent i.p.; for Latency Period ± SE: cutoff 15 sec
Experimental: The % potency was calculated by equ. (4) (Table 2). […]
% Potency = % protection of the tested compound x 100 ……. (4) […]
Central analgesic (hot plate) testing
The standard hot plate technique was undertaken by in vivo standard hot plate test [ 1,2]. […]
by placing them on a hot plate maintained at 55 ± 1 °C, 30 min. […]
suspended in sterile/distilled water by the ai d of two drops of Tween 80, and recording the reaction time in seconds for forepaw licking or jumping. The control group animals were given sterile/distilled water only with few drops of Tween 80. The maximum cutoff time was chosen as 15 sec. to prevent tissue damage. Response latencies were measured 30, 60, 90 and 120 min. after the application. The % protection was calculated by equ. ( 5) where, T1, T0 are the latency time mean of the tested compound and control group, respectively (Table 3).

[4] = tested on: gastric mucosa; details: both, albino, mouse, in vivo, 3 days
Experimental: The ulcerogenic liability was determined in albino mice obeying the standard method.
Animals of either sex (pregnant females were excluded) weighing 20 –25 g were divided into 8 groups of 6 animals each. The animals fasted 18 h before drug administration.
80 administered orally for three successive days to fasted animals at a dose of 10 mg kg-1 (animal […]
The control group animals were given water only with few drops of Tween 80. The animals were sacrificed by cervical dislocation and the stomach was removed, opened along the greater curvature and rinsed with saline. The gastric mucosa was examined with a magnifying lens (10x) for the presence of lesions and ero sions. The ulcer index was calculated (Table 4) and the degree of ulcerogenic effect was expressed in terms of.
1. The percentage incidence of ulcers divided by 10.
2. Average number of ulcers per stomach.
3. Average severity of ulcers.
The ulcer index is the value that resulted from the sum of the above three values. […]

[5] = tested on: mice; assay: toxicological bioassay; type: in vivo; details: five times the anti-inflammatory dose (50 mg/kg indomethacin mol equivalent); recorded 24 h post-administration
Experimental: Five times the anti-inflammatory dose was orally administrated. […]
5a, 5b, 5d, 5e) was determined utilizing the standard method in mice. Albino mice weighing 20–25 g were divided into 6 groups of 6 mice each. Administrations of the tested compounds dissolved in distilled water by the aid of few drops of Tween 80 were given intraperitoneally in 50 […]
inflammatory dosage). The control group was given water only with few drops of Tween 80. The toxic symptoms and mortality rates were recorded 24 h post -administration in each group.

[6] = tested on: LPS-stimulated RAW264.7 macrophages; assay: NO production of LPS-induced RAW264.7 (Griess method); type: cell-based; details: 40 μg/mL; LPS 10 ng/mL; LPS only 22 μM, baseline 12.8 μM
[7] = tested on: IL-6 mRNA; details: 40 μg/mL; in comparison to LPS-stimulated cells only
Experimental: (§1) For this purpose, the mRNA levels of IL-6, TNF-α, and iNOS were measured using real-time qPCR (RT-qPCR).
(§2) Treatment of LPS-stimulated RAW264.7 macrophages was done with 40 µg/mL of the isolated
(§3) Evaluation of inflammatory mRNA expression levels
(§4) Inflammatory mRNA expression levels were evaluated using RT-qPCR (Applied Biosystems, CA, USA). Total RNA was extracted by lysing RAW264.7 cells using Qiazol Lysis Reagent. The extracted RNA was used to synthesize cDNA using RevertAid First Strand cDNA synthesis kit according to manufacturer’s protocol. The cDNA was then added with forward and reverse
(§5) primers, nuclease free water and maxima SYBR green mix (Thermo Fisher Scientific, MA, USA).
(§6) The inflammation-related genes of mRNA expression levels are as follows: IL-6, TNF-α, and
(§7) iNOS. All expression was normalized to GAPDH (endogenous control) and relative fold mRNA
(§8) expression levels were calculated using the comparative 2 −ΔΔCT method. The PCR reaction consists
(§9) of initiation stage at 95 °C for 10 min, after that 40 PCR cycles of d enaturation stage for 15 s at 95
(§10) °C and annealing and extension for 1 min at 60 °C.

[8] = tested on: iNOS mRNA; details: 40 μg/mL; in comparison to LPS-stimulated cells only
Experimental: as §1, §2, §3, §4, §5, §6, §7, §8, §9, §10

[9] = tested on: TNF-α mRNA; details: 40 μg/mL; in comparison to LPS-stimulated cells only
Experimental: as §1, §2, §3, §4, §5, §6, §7, §8, §9, §10

## CC(C)Cc1ccc(C(C)C(=O)OCc2cn(-c3ccccc3Cl)nn2)cc1 (stereo not drawn) [Compound 5a, (1-(2-Chlorophenyl)-1H-1,2,3-triazol-4-yl)methyl 2-(4-isobutylphenyl)propanoate]
[1]; 1 h
  % Inhibition of Edema ± Standard Error: 29.7 ± 1.1%
[1]; 2 h
  % Inhibition of Edema ± Standard Error: 31.3 ± 0.8%
[1]; 3 h, 10 mg/kg
  % Inhibition of Edema ± Standard Error: 95.4% and 95.4 ± 0.7%
[1]; 3 h
  Mean Edema Thickness: 0.033 ± 0.01 mm
[1]; 4 h
  % Inhibition of Edema ± Standard Error: 45.7 ± 1.4%
[1]; 24 h, 10 mg/kg
  % Inhibition of Edema ± Standard Error: 22.5% and 22.5 ± 0.9%
[1]; 24 h
  Mean Edema Thickness: 0.713 ± 0.02 mm
[2]
  % Inhibition/Protection: 83.3%
[2]; number of writhing counted for 30 min
  Writing Reflex ± SE: 6.7 ± 0.7
[3]; after 30 min
  % Protection: 79.2%
  Latency Period ± SE: 11.97 ± 2.5 s
[3]; after 60 min
  % Protection: 71.5%
  Latency Period ± SE: 12.47 ± 2.0 s
[3]; after 90 min
  % Protection: 34.5%
  Latency Period ± SE: 11.98 ± 2.6 s
[3]; after 120 min
  % Protection: 54.5%
  Latency Period ± SE: 13.92 ± 2.3 s
[4]
  Ulcer Index: 0
[4]; po, 10 mg/kg
  % Incidence of Ulcer Divided by 10: 0
  Average Severity of Ulcer: 0
  Average of Ulcer Number: 0
  Number of Animals with Ulcer: 0
[5]
  toxic symptoms or mortality: No toxic symptoms or mortality
[6]
  LPS-stimulated NO production (nitrite): 17.7 µM
[7]
  reduction in IL-6 mRNA levels: 61.3%
[8]
  reduction in iNOS mRNA levels: 34%
[9]
  reduction in TNF-α mRNA levels: 88%
